Patent US20100297102A1, “SEROTONIN 5-HT3A RECEPTORS IN TREATMENT OF NEUROLOGICAL AND PSYCHIATRIC DISORDERS” (priority 2006, published 2010)

Assays:
5-HT3 receptor = target: T1, 5-HT3 receptor (Mus musculus, UniProt P23979); assay: Whole-cell patch-clamp of 5-HT3 receptor-mediated inward current in EGFP-positive neurons/neuroblasts in acute slices; type: cell-based, mice
T1 sequence (P23979 24-489): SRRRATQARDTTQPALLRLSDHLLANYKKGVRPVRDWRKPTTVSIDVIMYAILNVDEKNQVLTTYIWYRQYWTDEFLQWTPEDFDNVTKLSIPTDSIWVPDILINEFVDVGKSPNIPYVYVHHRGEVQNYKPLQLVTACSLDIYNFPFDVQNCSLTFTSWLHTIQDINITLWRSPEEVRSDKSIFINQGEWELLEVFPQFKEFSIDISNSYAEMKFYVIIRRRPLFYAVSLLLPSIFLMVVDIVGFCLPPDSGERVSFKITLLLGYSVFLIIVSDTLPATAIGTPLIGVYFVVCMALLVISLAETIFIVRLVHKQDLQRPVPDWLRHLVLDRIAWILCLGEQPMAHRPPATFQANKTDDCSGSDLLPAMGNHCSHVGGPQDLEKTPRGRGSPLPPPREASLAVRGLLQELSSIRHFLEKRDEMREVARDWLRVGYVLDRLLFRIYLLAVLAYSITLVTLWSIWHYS
Description: We thus performed patch-clamp recordings from cells with the typical migratory morphology in the DMS using acute sagittal slices from transgenic animals (FIG. 3, A).
Slice preparation and electrophysiology. 250-350 μm-thick parasagittal brain sections (for recordings in hippocampus, cortex, RMS and DMS) or coronal brain sections (for recordings in amygdala) were made from transgenic mice (P8-P42) using a vibratome (Leica VT1000S). Whole-cell voltage and current clamp recordings were made from visually identified, EGFPpositive neurons using and EPC9 amplifier (HEKA) and an upright microscope (Zeiss Axioskop FS2) equipped with IR-DIC and standard epifluorescence. […] Slices were continuously superfused with ACSF containing (in mM): 120 NaCl, 3.5 KCl, 2.5 CaCl2, 1.3 MgSO4, 1.25 NaH2PO4, 25 NaHCO3, 25 glucose. The presence of functional 5-HT3 receptors was assessed by application of 100 μM 5-HT (dissolved in ACSF) via pressure 12 ejection from a second pipette connected to a picospritzer. Cells were voltage clamped at −60 mV. Signals were filtered at 1-5 kHz, sampled at 2-10 kHz and off-line analysis was performed using Igor Pro (Wavemetrics).

transgenic mice = assay: Toxicity of BrdU injections in birthdating experiments; type: in vivo
Procedure: Birthdating analysis. Pregnant mice and P7 transgenic mice were injected intraperitoneally with 50 mg/kg or 300 mg/kg BrdU (Sigma) (body weight), sacrificed after 1 or 4 weeks and processed for immunostaining.
Five BrdU injections (50 mg/kg, intraperitoneally) were administered every 2 hrs apart for 8 hours at E12.5, E14.5, E16.5 and P7 (FIG. 10). […] To avoid a cumulative effect, 5 pulses of BrdU (one pulse per day) were administered from P7 to P12. At P7 two treatments, one with 50 mg/kg and with 300 mg/kg of BrdU were carried.

[1] = after intraperitoneal injection; cited from earlier work
EGFP-positive cells = assay: Organotypic slice culture: migration/distribution of EGFP-positive neuroblasts; type: cell-based, mice
Procedure: The presence of functional 5-HT3 receptors on neuroblasts raised the question whether the receptor activation plays a role in the migration and maturation of GABAergic inhibitory neurons in postnatal life. To this end, studies were carried out in organotypic slices obtained from P3 transgenic mice (n=8) and cultured in vitro for 6 days. There were clear alterations in the cortical distribution of EGFP-positive cells in slices treated with the specific 5-HT3 antagonist tropisetron (1 μM) compared to corresponding untreated slices (FIGS. 4, A and B). The decrease in the number of EGFP-expressing cells in tropisetron-treated animals in cortex and hippocampus indicates a deficit in the migration of these cells, rather than cell death since the neuroblasts are still clearly visible in the stream. […] By P3 when slices were made, many EGFP-expressing cells have already reached their destination.
Organotypic slice culture experiments. Organotypic slice cultures were performed as previously described. After 6 days in culture, slices, control or treated with tropisetron (Sigma), were fixed for 1 hr in 4% PFA and processed for immunostaining using polyclonal rabbit anti-EGFP antibody. Cell counts were performed in pairs of matching tropisetron-treated and untreated slices. EGFP-positive cells were counted in deep, in superficial cortical layers and in stratum radiatum of the hippocampus within three standardized rectangular regions of 200×150 μm2 for each region. Data from control and treated slices were analyzed by Student's t test.

[2] = tropisetron 1 μM, slices from P3 transgenic mice, 6 days in culture, n=8

**Q.** With `NCCc1c[nH]c2ccc(O)cc12` [5-HT, 5-hydroxytryptamine] as the molecule, how does the “5-HT3 receptor-mediated inward current, average amplitude” value (5-HT3 receptor; application of 5-HT (100 μM), mature/spiking neuroblasts in the DMS, 18 out of 22 responded) read?
**A.** −46.0±10.5 pA

**Q.** Which “block of 5-HT3 receptor-mediated inward current evoked by 100 μM 5-HT” value (5-HT3 receptor; whole-cell voltage clamped EGFP-positive neurons, n=5 (FIG. 1B)) does the source give for `CN1[C@@H]2CC[C@H]1C[C@@H](OC(=O)c1cc(Cl)cc(Cl)c1)C2` [MDL72222] here?
**A.** can be blocked

**Q.** Which toxic effects (transgenic mice; P16 mice after BrdU treatment, 50 mg/kg and 300 mg/kg i.p., dose-dependent) does the source give for `O=c1[nH]c(=O)n([C@H]2C[C@H](O)[C@@H](CO)O2)cc1Br` [BrdU] here?
**A.** Hair loss and motor deficits

**Q.** What about the “EGFP-positive cell number in the granule cell layer and periglomerular cell layer of the OB” value (transgenic mice; at P16, injected at P7 with 50 mg/kg BrdU, compared to untreated transgenic control mice (FIG. 10F)) of the same molecule?
**A.** Reduction

**Q.** And the “EGFP-positive cell number in the granule cell layer and periglomerular cell layer of the OB” value (transgenic mice; at P16, injected at P7 with 300 mg/kg BrdU, compared to untreated transgenic control mice (FIG. 10G))?
**A.** Reduction

**Q.** What about the “number of EGFP-positive cells in the cortex, the RMS and OB” value (transgenic mice; at P16 after postnatal treatment with BrdU) of the same molecule?
**A.** reduction

**Q.** What about the “persistence in the circulation” value [1] of the same molecule?
**A.** less than a few hours

**Q.** For `CN1[C@@H]2CC[C@H]1C[C@@H](OC(=O)c1c[nH]c3ccccc13)C2` [tropisetron], which “cell density in the DMS” value (EGFP-positive cells; slices from P3 transgenic mice treated with tropisetron, compared to control (FIG. 4)) is on record?
**A.** increase in cell density in the DMS

**Q.** What about the “number of EGFP positive cells in hippocampus, of control levels” value (EGFP-positive cells; tropisetron 100 nM, n=3) of the same molecule?
**A.** 74.7%

**Q.** And the “number of EGFP positive cells in superficial cortical layers, of control levels” value (EGFP-positive cells; tropisetron 100 nM, n=3)?
**A.** 81.1%

**Q.** And the “number of EGFP positive cells in the deep cortex, of control levels” value (EGFP-positive cells; tropisetron 100 nM, n=3)?
**A.** 70.8%

**Q.** What about the “number of EGFP positive cells in deep cortical layers, of the control level” value (EGFP-positive cells; [2]) of the same molecule?
**A.** 68.4%

**Q.** And the “number of EGFP positive cells in stratum radiatum of the hippocampus, of the control level” value (EGFP-positive cells; [2])?
**A.** 72.6%

**Q.** What about the “number of EGFP positive cells in superficial layers, of the control level” value (EGFP-positive cells; [2]) of the same molecule?
**A.** 76.4%
